Tested on: KRAS patient-derived spheroids with HUVEC/MSC, viability
Assay: Anticancer human tumor 323965-272-R-J2-PDC patient-derived pancreatic carcinoma cell line growth inhibition [KRAS2]
Conditions: for IC50: curve of first compound; for viability, T/C: stronger effect = lower value
Summary of the method: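 Combination screen of spheroid viability in tumor-cell co-cultures with endothelial (HUVEC) and mesenchymal stem cell stroma. Each agent was tested in half-log dilutions, topping at clinical Cmax or at 10 microM without a known Cmax.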

[1] = second compound 0.0316 µM, first compound 0.0316 µM
[2] = second compound 0.0316 µM, first compound 0.1 µM
[3] = second compound 0.0316 µM, first compound 0.316 µM
[4] = second compound 0.0316 µM, first compound 1 µM
[5] = second compound 0.0316 µM, first compound 3.16 µM
[6] = second compound 0.1 µM, first compound 0.0316 µM
[7] = second compound 0.1 µM, first compound 0.1 µM
[8] = second compound 0.1 µM, first compound 0.316 µM
[9] = second compound 0.1 µM, first compound 1 µM
[10] = second compound 0.1 µM, first compound 3.16 µM
[11] = second compound 0.316 µM, first compound 0.0316 µM
[12] = second compound 0.316 µM, first compound 0.1 µM
[13] = second compound 0.316 µM, first compound 0.316 µM
[14] = second compound 0.316 µM, first compound 1 µM
[15] = second compound 0.316 µM, first compound 3.16 µM
[16] = second compound 1 µM, first compound 0.0316 µM
[17] = second compound 1 µM, first compound 0.1 µM
[18] = second compound 1 µM, first compound 0.316 µM
[19] = second compound 1 µM, first compound 1 µM
[20] = second compound 1 µM, first compound 3.16 µM
[21] = second compound 3.16 µM, first compound 0.0316 µM
[22] = second compound 3.16 µM, first compound 0.1 µM
[23] = second compound 3.16 µM, first compound 0.316 µM
[24] = second compound 3.16 µM, first compound 1 µM
[25] = second compound 3.16 µM, first compound 3.16 µM
[26] = second compound 0.0316 µM, first compound 10 µM
[27] = second compound 0.1 µM, first compound 10 µM
[28] = second compound 0.316 µM, first compound 10 µM
[29] = second compound 1 µM, first compound 10 µM
[30] = second compound 3.16 µM, first compound 10 µM
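Note: spheroids exposed to agents for 7 days.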
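Throughout, for viability, T/C: 100% = DMSO vehicle control viability.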

SMILES | IC50 (second compound 0.0316 µM) [µM] | IC50 (second compound 0.1 µM) [µM] | IC50 (second compound 0.316 µM) [µM] | IC50 (second compound 1 µM) [µM] | IC50 (second compound 3.16 µM) [µM] | viability, T/C [1] [%] | viability, T/C [2] [%] | viability, T/C [3] [%] | viability, T/C [4] [%] | viability, T/C [5] [%] | viability, T/C [6] [%] | viability, T/C [7] [%] | viability, T/C [8] [%] | viability, T/C [9] [%] | viability, T/C [10] [%] | viability, T/C [11] [%] | viability, T/C [12] [%] | viability, T/C [13] [%] | viability, T/C [14] [%] | viability, T/C [15] [%] | further results
CC1COCCN1c1cc(-c2ccnn2C)c2ccnc(-c3ccn[nH]3)c2n1 (stereo not given) + C=CC(=O)N1CCN(c2nc(OCC3CCCN3C)nc3c2CCN(c2cccc4cccc(C)c24)C3)CC1CC#N | < 0.01 | 0.012 | < 0.01 | < 0.01 | < 0.01 | 26.8 | 18.7 | 16.4 | 13.9 | 12.6 | 27.4 | 15.2 | 14.8 | 12.9 | 12.1 | 21.7 | 14 | 12.2 | 11.2 | 10.6 | viability, T/C (second compound 0.0316 µM, first compound 0.01 µM): 49.2%; viability, T/C (second compound 0.1 µM, first compound 0.01 µM): 54.5%; viability, T/C (second compound 0.316 µM, first compound 0.01 µM): 41.4%; viability, T/C (second compound 1 µM, first compound 0.01 µM): 33%; viability, T/C [16]: 18.2%; viability, T/C [17]: 10.8%; viability, T/C [18]: 11.1%; viability, T/C [19]: 12.2%; viability, T/C [20]: 11.8%; viability, T/C (second compound 3.16 µM, first compound 0.01 µM): 5.59%; viability, T/C [21]: 4.03%; viability, T/C [22]: 3.06%; viability, T/C [23]: 1.93%; viability, T/C [24]: 1.48%; viability, T/C [25]: 2.61%
CC1OCC2(CCN(c3cnc(Sc4ccnc(N)c4Cl)c(N)n3)CC2)C1N (stereo not given) + C=CC(=O)N1CCN(c2nc(OCC3CCCN3C)nc3c2CCN(c2cccc4cccc(C)c24)C3)CC1CC#N | 0.0369 | < 0.0316 | < 0.0316 | < 0.0316 | < 0.0316 | 51.4 | 39.2 | 24.4 | 19.3 | 12.3 | 38.4 | 31.9 | 21.5 | 15.1 | 10.7 | 41 | 30.5 | 18.4 | 17 | 10.8 | viability, T/C [26]: 9.85%; viability, T/C [27]: 10.8%; viability, T/C [28]: 9.7%; viability, T/C [16]: 35.2%; viability, T/C [17]: 28.9%; viability, T/C [18]: 15.7%; viability, T/C [19]: 13.5%; viability, T/C [20]: 11.6%; viability, T/C [29]: 10%; viability, T/C [21]: 1.93%; viability, T/C [22]: 1.12%; viability, T/C [23]: 0.53%; viability, T/C [24]: 0.65%; viability, T/C [25]: 1.07%; viability, T/C [30]: 1.33%
Cn1nccc1Nc1nccc(-c2cc3c(s2)C(C)(C)N(CCN2CCOCC2)C3=O)n1 + C=CC(=O)N1CCN(c2nc(OCC3CCCN3C)nc3c2CCN(c2cccc4cccc(C)c24)C3)CC1CC#N | 0.387 | < 0.0316 | 0.0585 | < 0.0316 | < 0.0316 | 59.9 | 59.8 | 50.2 | 43.2 | 31.5 | 49.1 | 49.1 | 39.2 | 36.4 | 32.1 | 55.5 | 44.9 | 40 | 37.4 | 30.8 | viability, T/C [26]: 32.5%; viability, T/C [27]: 36.4%; viability, T/C [28]: 35.5%; viability, T/C [16]: 45.5%; viability, T/C [17]: 41.8%; viability, T/C [18]: 45.8%; viability, T/C [19]: 35.7%; viability, T/C [20]: 28.9%; viability, T/C [29]: 29.5%; viability, T/C [21]: 3.69%; viability, T/C [22]: 4.06%; viability, T/C [23]: 2.62%; viability, T/C [24]: 0.91%; viability, T/C [25]: 0.72%; viability, T/C [30]: 0.53%
